Where two headings read alike, the source gives them in different places.
Experiments:
[1] = system: HCT116 (Colon carcinoma); test: FMCA cytotoxicity, HCT116; type: cell-based, human; conditions: 72 h
Procedure: (§1) The inventors also set out to characterize activity of the compounds A, B and C in cell lines representing cancer of different origin. The specific assays used and the conclusions from the mechanistic evaluation have previously been described in detail (Zhang et al. 2014). Compounds A, B and C (See FIG. 4) were evaluated for cytotoxicity expressed as survival index (SI) in six human tumor cell lines using the cell based fluorometric micro culture cytotoxicity assay (FMCA) as previously described in detail (Lindhagen et al, 2008). The method is based on measurement of fluorescent fluorescein, generated from hydrolysis of FDA by viable cells with intact plasma membrane. The fluorescence is proportional to the number of intact viable cells.
(§2) The cell lines were cultivated in the respective cell medium recommended by the provider. The medium was supplemented with 10% heat-inactivated fetal bovine serum, 2 mmol/L L-glutamine, 100 μg/mL streptomycin and 100 U/mL penicillin (all from Sigma-Aldrich). The cell line was cultured at 37° C. in a humidified atmosphere containing 5% CO2.
(§3) FMCA analysis in brief, 2500 cells per well were seeded into 384-well microplates and incubated over night before treatment with compounds. Compounds were added using acoustic liquid transfer (Echo 550, LabCyte). The plates were incubated at 37° C. for 72 h, and then washed and FDA was added to the wells followed by 50 min of incubation at 37° C. The fluorescence, which is proportional to the number of living cells in each well, was measured at 485/520 nm in a Fluoroskan instrument (Labsystems, GMI, Ramsey, Minn.). Cell survival is presented as Survival Index (SI), defined as the fluorescence value in the compound-treated wells analysed as percentage of the value in the control wells, with blank values subtracted. Quality criteria included a signal/blank ratio >10 and a coefficient of variation (CV) in control and blank wells <30%. Graph Pad Prism (San Diego, Calif., USA). All experiments were performed twice, and each concentration was evaluated in quadruplicates in each experiment. […]

[2] = system: RKO (Colon carcinoma); test: FMCA cytotoxicity, RKO; type: cell-based, human; conditions: 72 h
Procedure: as §1, §2, §3

[3] = system: HeLa (Cervix Adenocarcinoma); test: FMCA cytotoxicity, HeLa; type: cell-based, human; conditions: 72 h
Procedure: as §1, §2, §3

[4] = system: HepG2 (Hepatocellular Carcinoma); test: FMCA cytotoxicity, HepG2; type: cell-based, human; conditions: 72 h
Procedure: as §1, §2, §3

[5] = system: CCRF-CEM (Acute lymphoblastic leukemia); test: FMCA cytotoxicity, CCRF-CEM; type: cell-based, human; conditions: 72 h
Procedure: as §1, §2, §3

[6] = system: THP-1 (Acute Monocytic Leukemia); test: FMCA cytotoxicity, THP-1; type: cell-based, human; conditions: 72 h
Procedure: as §1, §2, §3

[7] = system: primary human tumor cell cultures, Appendix; conditions: 4 patients analyzed, 72 h
Procedure: (§4) Cells were seeded in the drug-prepared 384-well plates using the pipetting robot Precision 2000 (Bio-Tek Instruments Inc., Winooski, Vt.).

[8] = system: primary human tumor cell cultures, Colorectal cancer; conditions: 25 patients analyzed, 72 h
Procedure: as §4

[9] = system: primary human tumor cell cultures, Gastric; conditions: 9 patients analyzed, 72 h
Procedure: as §4

[10] = system: primary human tumor cell cultures, Mesothelioma; conditions: 7 patients analyzed, 72 h
Procedure: as §4

[11] = system: primary human tumor cell cultures, Ovarian; conditions: 30 patients analyzed, 72 h
Procedure: as §4

[12] = system: primary human tumor cell cultures, PMP (Pseudomyxoma Peritonei); conditions: 50 patients analyzed, 72 h
Procedure: as §4

[13] = system: primary human tumor cell cultures, Pancreas; conditions: 1 patient analyzed, 72 h
Procedure: as §4

[14] = system: primary human tumor cell cultures, Renal; conditions: 13 patients analyzed, 72 h
Procedure: as §4

[15] = system: primary human tumor cell cultures, Small bowel; conditions: 1 patient analyzed, 72 h
Procedure: as §4

[16] = system: various cell lines (CCRF-CEM, RPMI-8226, A2780, FaDu, HT29, MCF7, HL-60) and primary human tumor cell cultures; conditions: FIG. 3
Procedure: as §4

[17] = system: six human tumor cell lines; test: FMCA cytotoxicity, six human tumor cell lines (overall); type: cell-based; conditions: Table 6 and FIG. 4
Procedure: as §1, §2, §3

[18] = same sample re-analysed after 2 days

Q: Which results are given for `C/C(=N\Nc1nnc2c(n1)[nH]c1c(C)cccc12)c1ccccn1` [Compound A, 2-[(1E,Z)-1-(2-{6-methyl-5H-[1,2,4]triazino[5,6-b]indole-3-yl}hydrazine-1-ylidene)ethyl]-pyridine]?
A: IC50 [1]: ~1 µM; IC50 [2]: < 0.25 µM; IC50 [3]: ~20 µM; IC50 [4]: < 0.25 µM; IC50 [5]: < 0.25 µM; IC50 [6]: < 0.25 µM; IC50 [7]: 21 µM; IC50 [8]: 11 µM; IC50 [9]: 6.9 µM; IC50 [10]: 12 µM; IC50 [11]: 5.7 µM; IC50 [12]: 9.4 µM; IC50 [13]: 6 µM; IC50 [14]: 164 µM; IC50 [15]: 5.4 µM; anti-cancer activity [16]: broad anti-cancer activity; activity on cancer cell lines [17]: strong activity; Z-isomer content [18]: ~2%; hydrolysis detected [18]: ~1%; Z-isomer content (sample preparation in 0.1% TFA/H2O, first analysis): ~7%

From patent US10668056B2, “Pharmaceutical composition comprising indole derivatives, process for preparation and use thereof” (VIVOLUX AB, priority 2015, dated 2020)
